According to patent US20250075126A1, “DIQUATERNARY COMPOUNDS FOR CORROSION INHIBITION AND METHODS OF USE THEREOF” (ChampionX LLC, priority 2023, published 2025):

Tests used:
[1] = Bubble cell test, corrosion rate by linear polarization resistance (LPR); settings: 66° C.; for % Protection: 10 ppm CI composition (2 ppm active) with 0.5 ppm 2-mercaptoethanol, versus avg. blank corrosion rate, 22 hour; for Corrosion rate after 22 hour CI injection: 10 ppm CI composition (20% active = 2 ppm active) with 0.5 ppm 2-mercaptoethanol, CO2-saturated synthetic brine 80% / LVT-200 20%, 100 rpm
Procedure: Examples were conducted to assess the corrosion inhibitors produced in Example 1 using bubble cell tests to assess corrosion performance using linear polarization resistance testing. The corrosion inhibitor was combined with the sulfur synergist 2-mercaptoethanol.
The bubble test simulates low flow areas where little or no mixing of water and oil occurs. The test was conducted using synthetic brine (80% of the brine and 20% of a hydrocarbon containing LVT-200) as shown in Table 1.
The brine was placed into kettles and purged with carbon dioxide resulting in carbon dioxide saturated brine. The brine was continually purged with carbon dioxide at 1 bar CO2 to saturate the brine prior to starting the test for a 2 hour pre-corrode. After the test began, the test cell was blanketed with carbon dioxide one hour prior to electrode insertion and through the duration of the test to maintain saturation. The kettles were stirred at 100 revolutions per minute (rpm) for the duration of the test at 66° C.
The corrosion rate was measured by Linear Polarization Resistance (LPR) techniques. The working electrode used was carbon steel (C1018 grade). The counter and reference electrodes were both 1018 carbon steel. The electrodes were all cleaned and polished prior to testing. Data were collected for 2 hours before 10 ppm of the corrosion inhibitor composition (containing 20% of the reaction product corrosion inhibitor) was added to the hydrocarbon phase, equating to 2 ppm of the active reaction product corrosion inhibitor with 0.5 ppm 2-mercaptoethanol being introduced into the test cell. Data were collected overnight for 22 hour test duration.

[2] = Partitioning test, brine/oil, LC-MS analysis; type: physicochemical; settings: 50 ppm dosed into oil layer; 50 mL synthetic brine, 25 mL aromatic 150, 25 mL LVT 200; room temperature; 1 hour rest
Procedure: Additional comparison testing was conducted on the alkyl diquaternary compound corrosion inhibitor of Example 1 (corrosion inhibitor VIa) compared to as conventional quaternary ammonium compounds. Partitioning tests were conducted of the corrosion inhibitor (VIa) and a quaternary ammonium compound (trimethylstearyl benzyl chloride quat) to determine the partitioning coefficient via LC-MS (Liquid Chromatography-Mass Spectroscopy) analysis.
At room temperature, 50 mL of the synthetic brine of Table 1, 25 mL of aromatic 150, and 25 mL of LVT 200 were pipetted into a 125-mL separational funnel. 50 ppm of the corrosion inhibitor (VIa) or trimethylstearyl benzyl chloride quat were dosed into the oil layer of the funnel. The cap was inserted into the funnel and the mixture was shaken vigorously for one minute and then set for an hour. After the hour rest, the bottom layer (brine layer) was drained and collected for LC-MS analysis. LC-MS analysis determines the amount of the corrosion inhibitor (VIa) and trimethylstearyl benzyl chloride quat that partitioned into the brine phase. The amount found in the brine phase was compared to the original amount introduced into the oil phase of the brine/oil solution (50 ppm) and a percentage amount is calculated. The percent amount of the corrosion inhibitor (VIa) and trimethylstearyl benzyl chloride quat present in the brine phase is shown in Table 4.

Compound: CCCCCCCCCCCCCCCCCC[N+](C)(C)CC(O)C[N+](CCO)(CCO)CCO (stereo not drawn) [VIa]
- % Protection [1]: 99.3%
- Corrosion rate after 22 hour CI injection [1]: 1.5 mpy
- % Partitioning to brine phase [2]: 84.1%

Compound: alkyl dimethyl benzyl chloride quat
- % Protection [1]: 99.3%
- Corrosion rate after 22 hour CI injection [1]: 1.4 mpy

Compound: trimethylstearyl benzyl chloride quat
- % Partitioning to brine phase [2]: 28.4%
